Molecular target: T1, AR (Homo sapiens, UniProt P10275, T878A)
T1 sequence (P10275 1-920 T878A): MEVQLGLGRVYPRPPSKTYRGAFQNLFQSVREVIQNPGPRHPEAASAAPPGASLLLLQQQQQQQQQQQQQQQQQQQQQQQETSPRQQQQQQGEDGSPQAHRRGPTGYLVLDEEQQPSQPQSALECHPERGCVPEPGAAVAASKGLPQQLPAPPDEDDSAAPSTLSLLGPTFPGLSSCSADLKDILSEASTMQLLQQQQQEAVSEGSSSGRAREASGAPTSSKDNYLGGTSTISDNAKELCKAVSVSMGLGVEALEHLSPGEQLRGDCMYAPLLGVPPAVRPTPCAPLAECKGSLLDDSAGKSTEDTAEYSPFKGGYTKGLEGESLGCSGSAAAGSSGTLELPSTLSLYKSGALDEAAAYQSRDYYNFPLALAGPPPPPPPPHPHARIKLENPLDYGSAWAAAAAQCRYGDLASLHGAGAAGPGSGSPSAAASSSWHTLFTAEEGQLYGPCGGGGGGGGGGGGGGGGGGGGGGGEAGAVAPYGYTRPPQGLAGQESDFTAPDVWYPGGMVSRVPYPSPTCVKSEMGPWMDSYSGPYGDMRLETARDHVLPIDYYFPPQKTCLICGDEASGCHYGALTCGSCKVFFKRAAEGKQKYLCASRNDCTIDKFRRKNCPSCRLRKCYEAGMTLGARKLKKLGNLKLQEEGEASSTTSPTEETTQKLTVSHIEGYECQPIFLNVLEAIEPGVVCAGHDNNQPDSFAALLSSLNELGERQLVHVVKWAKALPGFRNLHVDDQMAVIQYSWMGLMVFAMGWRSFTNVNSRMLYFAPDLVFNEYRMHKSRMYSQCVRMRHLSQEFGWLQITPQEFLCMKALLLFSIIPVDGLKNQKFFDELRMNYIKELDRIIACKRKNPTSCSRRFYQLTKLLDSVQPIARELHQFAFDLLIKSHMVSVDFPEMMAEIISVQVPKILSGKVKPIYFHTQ
Test: Effects of compounds on AR expression in LNCaP cells (ELISA, DC50)
Type: cell-based
Set-up: Measurement of the Effects of Drugs on the Expression of AR in Cells by ELISA Method; endogenous in cells; host or cells: LNCaP
Conditions: 24 hours of drug treatment, AR by ELISA
Summary of the method: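 LNCaP cells at about 15,000/well were treated for 24 h with compound at 0.0001–2 μmol/L final. AR in cell lysates was measured by ELISA (OD450). Inhibition was relative to DMSO control after blank subtraction, and DC50 was calculated from it.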

Compared with `Cc1ncsc1-c1ccc([C@H](C)NC(=O)[C@@H]2C[C@@H](O)CN2C(=O)[C@@H](NC(=O)COCC(F)C(F)COc2c(F)cc(-c3ncc(N4C(=S)N(c5ccc(C#N)c(C(F)(F)F)c5F)C(=O)C4(C)C)cc3F)cc2F)C(C)(C)C)cc1` (some centres unmarked) [Compound A144], `Cc1ncsc1-c1ccc([C@H](C)NC(=O)[C@@H]2C[C@@H](O)CN2C(=O)[C@@H](NC(=O)COCCC(F)COc2c(F)cc(-c3ncc(N4C(=S)N(c5ccc(C#N)c(C(F)(F)F)c5F)C(=O)C4(C)C)cc3F)cc2F)C(C)(C)C)cc1` (some centres unmarked) [Compound A149] is 5.7-fold lower in DC50: 635 nM for the first, 111 nM for the second.

First: CC(=O)O[C@@H]1C[C@@H](C(=O)NCc2ccc(-c3scnc3C)cc2)N(C(=O)[C@@H](NC(=O)COCCCCOc2ccc(-c3ncc(N4C(=S)N(c5ccc(C#N)c(C(F)(F)F)c5F)C(=O)C4(C)C)cc3F)c(C(F)(F)F)c2)C(C)(C)C)C1 [Compound A146]
Second: CC(=O)O[C@@H]1C[C@@H](C(=O)NCc2ccc(-c3scnc3C)cc2)N(C(=O)[C@@H](NC(=O)COCCCCOc2c(F)cc(-c3ncc(N4C(=S)N(c5ccc(C#N)c(C(F)(F)F)c5F)C(=O)C4(C)C)cc3F)cc2F)C(C)(C)C)C1 [Compound A152]
The DC50 of the first is 1.6-fold higher: 259 nM for the first, 167 nM for the second.

Compared with `Cc1ncsc1-c1ccc(CNC(=O)[C@@H]2C[C@@H](O)CN2C(=O)[C@@H](NC(=O)COCCC(F)COc2ccc(-c3ncc(N4C(=S)N(c5ccc(C#N)c(C(F)(F)F)c5F)C(=O)C4(C)C)cc3F)cc2F)C(C)(C)C)cc1` (some centres unmarked) [Compound A147], `Cc1ncsc1-c1ccc(CNC(=O)[C@@H]2C[C@@H](O)CN2C(=O)[C@@H](NC(=O)COCC(F)CCOc2ccc(-c3ncc(N4C(=S)N(c5ccc(C#N)c(C(F)(F)F)c5F)C(=O)C4(C)C)cc3F)cc2F)C(C)(C)C)cc1` (some centres unmarked) [Compound A159] is 2-fold higher in DC50: 84.9 nM for the first, 168 nM for the second.

Going from `Cc1ncsc1-c1ccc(CNC(=O)[C@@H]2C[C@@H](O)CN2C(=O)[C@@H](NC(=O)COCC(F)C(F)COc2ccc(-c3ncc(N4C(=S)N(c5ccc(C#N)c(C(F)(F)F)c5F)C(=O)C4(C)C)cc3F)cc2F)C(C)(C)C)cc1` (some centres unmarked) [Compound A150] to `Cc1ncsc1-c1ccc(CNC(=O)[C@@H]2C[C@@H](O)CN2C(=O)[C@@H](NC(=O)COCC(F)(F)CCOc2ccc(-c3ncc(N4C(=S)N(c5ccc(C#N)c(C(F)(F)F)c5F)C(=O)C4(C)C)cc3F)cc2F)C(C)(C)C)cc1` [Compound A162], the DC50 rises from 90.6 nM to 186 nM (2.1-fold).

Going from `Cc1ncsc1-c1ccc(CNC(=O)[C@@H]2C[C@@H](O)CN2C(=O)[C@@H](NC(=O)COCC(F)C(F)COc2ccc(-c3ncc(N4C(=S)N(c5ccc(C#N)c(C(F)(F)F)c5F)C(=O)C4(C)C)cc3F)c(C(F)(F)F)c2)C(C)(C)C)cc1` (some centres unmarked) [Compound A154] to `Cc1ncsc1-c1ccc(CNC(=O)[C@@H]2C[C@@H](O)CN2C(=O)[C@@H](NC(=O)COCC(F)CCOc2ccc(-c3ncc(N4C(=S)N(c5ccc(C#N)c(C(F)(F)F)c5F)C(=O)C4(C)C)cc3F)c(C(F)(F)F)c2)C(C)(C)C)cc1` (some centres unmarked) [Compound A166], the DC50 rises from 37.6 nM to 144 nM (3.8-fold).

First: Cc1ncsc1-c1c[nH]c([C@@H]2C[C@@H](O)CN2C(=O)[C@@H](NC(=O)COCCCCOc2ccc(-c3ncc(N4C(=S)N(c5ccc(C#N)c(C(F)(F)F)c5F)C(=O)C4(C)C)cc3F)cc2F)C(C)(C)C)n1 [Compound A160]
Second: Cc1ncsc1-c1c[nH]c([C@@H]2C[C@@H](O)CN2C(=O)[C@@H](NC(=O)COCCCCOc2ccc(-c3ncc(N4C(=S)N(c5ccc(C#N)c(C(F)(F)F)c5F)C(=O)C4(C)C)cc3F)c(C(F)(F)F)c2)C(C)(C)C)n1 [Compound A165]
The DC50 of the first is 3.4-fold higher: 151 nM for the first, 43.8 nM for the second.

`Cc1ncsc1-c1ccc(CNC(=O)[C@@H]2C[C@@H](O)CN2C(=O)[C@@H](NC(=O)COCCC(F)(F)COc2ccc(-c3ncc(N4C(=S)N(c5ccc(C#N)c(C(F)(F)F)c5F)C(=O)C4(C)C)cc3F)cc2F)C(C)(C)C)cc1` [Compound A163] and `Cc1ncsc1-c1ccc(CNC(=O)[C@@H]2C[C@@H](O)CN2C(=O)[C@@H](NC(=O)COCCC(F)(F)COc2ccc(-c3ncc(N4C(=S)N(c5ccc(C#N)c(C(F)(F)F)c5F)C(=O)C4(C)C)cc3F)c(C(F)(F)F)c2)C(C)(C)C)cc1` [Compound A167] are within 1.5-fold of each other in DC50: 171 nM for the first, 204 nM for the second.

`Cc1ncsc1-c1ccc(CNC(=O)[C@@H]2C[C@@H](O)CN2C(=O)[C@@H](NC(=O)COCC(F)(F)CCOc2ccc(-c3ncc(N4C(=S)N(c5ccc(C#N)c(C(F)(F)F)c5F)C(=O)C4(C)C)cc3F)c(C(F)(F)F)c2)C(C)(C)C)cc1` [Compound A168] and `Cc1ncsc1-c1ccc(CNC(=O)[C@@H]2C[C@@H](O)CN2C(=O)[C@@H](NC(=O)COCC(F)(F)CCOc2ccc(-c3ccc(N4C(=S)N(c5ccc(C#N)c(C(F)(F)F)c5F)C(=O)C4(C)C)cn3)cc2)C(C)(C)C)cc1` [Compound A175] are within 1.5-fold of each other in DC50: 159 nM for the first, 123 nM for the second.

`Cc1ncsc1-c1ccc(CNC(=O)[C@@H]2C[C@@H](O)CN2C(=O)[C@@H](NC(=O)COCC(F)C(F)COc2ccc(-c3ccc(N4C(=S)N(c5ccc(C#N)c(C(F)(F)F)c5F)C(=O)C4(C)C)cn3)cc2)C(C)(C)C)cc1` (some centres unmarked) [Compound A169] and `Cc1ncsc1-c1ccc(CNC(=O)[C@@H]2C[C@@H](O)CN2C(=O)[C@@H](NC(=O)COCC(F)CCOc2ccc(-c3ccc(N4C(=S)N(c5ccc(C#N)c(C(F)(F)F)c5F)C(=O)C4(C)C)cn3)cc2)C(C)(C)C)cc1` (some centres unmarked) [Compound A171] are within 1.5-fold of each other in DC50: 92.6 nM for the first, 80.2 nM for the second.

Compared with `Cc1ncsc1-c1ccc(CNC(=O)[C@@H]2C[C@@H](O)CN2C(=O)[C@@H](NC(=O)COCCCCNC(=O)/C=C/c2ccc(N3C(=S)N(c4ccc(C#N)c(C(F)(F)F)c4F)C(=O)C3(C)C)cn2)C(C)(C)C)cc1` [Compound A170], `Cc1cc(C(C(=O)N2C[C@H](O)C[C@H]2C(=O)N[C@@H](CC(=O)NCCCCCCOc2ccc(-c3ncc(N4C(=S)N(c5ccc(C#N)c(C(F)(F)F)c5F)C(=O)C4(C)C)cc3F)cc2F)c2ccc(-c3scnc3C)cc2)C(C)C)on1` (some centres unmarked) [Compound A177] is 3.7-fold lower in DC50: 946 nM for the first, 253 nM for the second.

Going from `Cc1cc(C(C(=O)N2C[C@H](O)C[C@H]2C(=O)N[C@@H](CC(=O)NCCCOc2ccc(-c3ncc(N4C(=S)N(c5ccc(C#N)c(C(F)(F)F)c5F)C(=O)C4(C)C)cc3F)cc2F)c2ccc(-c3scnc3C)cc2)C(C)C)on1` (some centres unmarked) [Compound A172] to `Cc1cc(C(C(=O)N2C[C@H](O)C[C@H]2C(=O)N[C@@H](CC(=O)N2CCC(Oc3ccc(-c4ncc(N5C(=S)N(c6ccc(C#N)c(C(F)(F)F)c6F)C(=O)C5(C)C)cc4F)cc3F)CC2)c2ccc(-c3scnc3C)cc2)C(C)C)on1` (some centres unmarked) [Compound A178], the DC50 falls from 170 nM to 90.5 nM (1.9-fold).

`Cc1cc(C(C(=O)N2C[C@H](O)C[C@H]2C(=O)N[C@@H](CC(=O)N2CCC(C#Cc3ccc(N4C(=S)N(c5ccc(C#N)c(C(F)(F)F)c5F)C(=O)C4(C)C)cn3)CC2)c2ccc(-c3scnc3C)cc2)C(C)C)on1` (some centres unmarked) [Compound A173] and `Cc1cc(C(C(=O)N2C[C@H](O)C[C@H]2C(=O)N[C@@H](CC(=O)N2CCC(C#Cc3ccc(N4C(=S)N(c5ccc(C#N)c(C(F)(F)F)c5F)C(=O)C4(C)C)cc3)CC2)c2ccc(-c3scnc3C)cc2)C(C)C)on1` (some centres unmarked) [Compound A176] are within 1.5-fold of each other in DC50: 78.1 nM for the first, 62.1 nM for the second.

Going from `CC1(C)C(=O)N(c2ccc(C#N)c(C(F)(F)F)c2F)C(=S)N1c1cnc(-c2ccc(OC3CCN(C(=O)COc4ccc5c(c4)C(=O)N(C4CCC(=O)NC4=O)C5=O)CC3)cc2C(F)(F)F)c(F)c1` (centres unmarked) [Compound A180] to `Cc1cc(C(C(=O)N2C[C@H](O)C[C@H]2C(=O)N[C@@H](CC(=O)N2CCC(Oc3ccc(-c4ncc(N5C(=S)N(c6ccc(C#N)c(C(F)(F)F)c6F)C(=O)C5(C)C)cc4F)c(C(F)(F)F)c3)CC2)c2ccc(-c3scnc3C)cc2)C(C)C)on1` (some centres unmarked) [Compound A183], the DC50 falls from 840 nM to 151 nM (5.6-fold).
